# Data reported in patent US7410974B2, “Halogenated Quinazolinyl nitrofurans as antibacterial agents” (Ulysses Pharmaceutical Products, Inc., priority 2003, dated 2008).
# Where two headings read alike, the source gives them in different places.
# What was measured:
# [1] = test system: E. faecalis ATCC 29212; assay: MIC broth microdilution (NCCLS); type: cell-based, Enterococcus faecalis; conditions: Enterococcus faecalis, ATCC29212; E. faecalis ATCC 29212; read-out: MIC
# Procedure: (§1) Minimal Inhibitory Concentration (MIC) Determination. Bacteria (primary strain panel, TABLE 1). Susceptibility tests were performed following the recommendations from the National Committee for Clinical Standards (NCCLS). The MICs were determined by a broth microdilution technique using a final volume of 100 μl of cation-adjusted Mueller Hinton Broth (MHBCA) and a bacterial inoculum of 10^5-10^6 Colony Forming Units (CFU)/ml. The inocula were verified and precisely determined by applying 10-μl drops of 10-fold dilutions onto Triptic Soy Agar plates. The CFU were counted after an incubation of 24 h at 35° C. Any experiment showing an inoculum that was more or less than 10^5-10^6 CFU/ml was rejected. Control antibiotics and test compounds were prepared at a concentration equivalent to 2-fold the highest desired final concentration. Compounds were then diluted directly in the 96-well microtiter plates by serial 2-fold dilutions using a multichannel pipette. Microtiter plates were incubated during 24 h at 35° C. and growth was recorded by using a microtiterplate reader at 650 nm as well as by visual observation. The MIC was defined as the lowest concentration of compound yielding no visible growth. […] Fastidious bacteria. The medium used for Listeria monocytogenes, Neisseria meningitidis, and Campylobacter jejuni was MHBCA containing 2% laked horse blood. The medium used for Haemophilus influenzae and Branhamella (Moraxella) catarrhalis was HTM as recommended by the NCCLS. Cultures of these fastidious bacteria were incubated at 35° C. in a 5% CO2 atmosphere. […] The medium used for Bacteroides fragilis was Wilkins Chalgren broth and growth was allowed under an anaerobic atmosphere at 35° C. for 48 hours.
# [2] = test system: H. influenzae ATCC 49247; assay: MIC broth microdilution (NCCLS), fastidious bacteria; type: cell-based; conditions: Haemophilus influenzae, ATCC49247, HTM, 5% CO2
# Procedure: as §1
# [3] = test system: H. influenzae ATCC 49766; assay: as above; type: cell-based; conditions: Haemophilus influenzae, ATCC49766, HTM, 5% CO2
# Procedure: as §1
# [4] = test system: B. catarrhalis ATCC 8176; assay: as above; type: cell-based, Branhamella (Moraxella) catarrhalis; conditions: Moraxella catarrhalis, ATCC8176, HTM, 5% CO2
# Procedure: as §1
# [5] = test system: E. faecium VanA; assay: MIC broth microdilution, antibiotic resistant strain panel; type: cell-based; conditions: Enterococcus faecium; multi-resistant E. faecium VanA; read-out: MIC
# Procedure: as §1
# Finally, compounds were also tested against populations of various clinical strains (antibiotic resistant strain panel, TABLE 1).
# [6] = test system: H. influenzae ATCC 49766; assay: Minimal Bactericidal Concentration (MBC); type: cell-based; conditions: Haemophilus influenzae, ATCC49766, 99.9% killing
# Procedure: (§2) Minimal Bactericidal Concentration (MBC). After the microtiter plates were read for the determination of the MIC, a 10-μl sample of each clear well (at least 5 wells without visible growth) was applied onto TSA plates for viable counts determination.
# (§3) Petri dishes were incubated at 35° C. for exactly 24 h and bacterial colonies were counted.
# [7] = test system: B. catarrhalis ATCC 8176; assay: Minimal Bactericidal Concentration (MBC); type: cell-based, Branhamella (Moraxella) catarrhalis; conditions: Moraxella catarrhalis, ATCC8176, 99.9% killing
# Procedure: as §2, §3
# [8] = test system: S. aureus ATCC 29213; assay: MIC broth microdilution (NCCLS); type: cell-based, Staphylococcus aureus; conditions: Staphylococcus aureus, ATCC29213; S. aureus ATCC 29213; read-out: MIC
# Procedure: as §1
# [9] = test system: S. aureus MRSA COL; assay: MIC broth microdilution (NCCLS); type: cell-based, Staphylococcus aureus; conditions: Staphylococcus aureus, MRSA, S. aureus MRSA COL; read-out: MIC
# Procedure: as §1, with “hours. […]” for “hours.”
# [10] = test system: S. epidermidis ATCC 12228; assay: MIC broth microdilution (NCCLS); type: cell-based, Staphylococcus epidermidis; conditions: Staphylococcus epidermidis, ATCC12228; S. epidermidis ATCC 12228; read-out: MIC
# Procedure: as §1
# [11] = test system: S. saprophyticus ATCC 15305; assay: MIC broth microdilution (NCCLS); type: cell-based, Staphylococcus saprophyticus; conditions: Staphylococcus saprophyticus, ATCC15305; S. saprophyticus ATCC 15305; read-out: MIC
# Procedure: as §1
# [12] = test system: E. faecium ATCC 35667; assay: MIC broth microdilution (NCCLS); type: cell-based, Enterococcus faecium
# Procedure: as §1
# [13] = test system: E. coli ATCC 25922; assay: MIC broth microdilution (NCCLS); type: cell-based, Escherichia coli; conditions: Escherichia coli, ATCC25922, E. coli ATCC 25922 (Reference); read-out: MIC
# Procedure: as §1
# [14] = test system: A. baumannii ATCC 19606; assay: MIC broth microdilution (NCCLS); type: cell-based, Acinetobacter baumannii; conditions: Acinetobacter baumannii, ATCC19606, read-out: MIC
# Procedure: as §1
# [15] = test system: Y. enterocolytica ATCC 23715; assay: MIC broth microdilution (NCCLS); type: cell-based, Yersinia enterocolytica; conditions: Yersinia, ATCC23715, read-out: MIC
# Procedure: as §1
# [16] = test system: H. influenzae ATCC 49247; assay: Minimal Bactericidal Concentration (MBC); type: cell-based; conditions: Haemophilus influenzae, ATCC49247, 99.9% killing
# Procedure: as §2, §3
# [17] = test system: S. typhimurium ATCC14028; assay: MIC broth microdilution (NCCLS); type: cell-based, Salmonella typhimurium; conditions: Salmonella enterica
# Procedure: as §1
# [18] = test system: M. smegmatis ATCC 19420; assay: MIC broth microdilution (NCCLS), fastidious bacteria; type: cell-based, Mycobacterium smegmatis; conditions: Mycolicibacterium smegmatis, ATCC19420, read after 48 hours
# Procedure: as §1
# [19] = Enterococcus faecium, ATCC35667, E. faecium ATCC 35667, read-out: MIC
smiles,measurement,setting,value
CC[C@H]1OC(=O)[C@H](C)[C@@H](O[C@H]2C[C@@](C)(OC)[C@@H](O)[C@H](C)O2)[C@H](C)[C@@H](O[C@@H]2O[C@H](C)C[C@H](N(C)C)[C@H]2O)[C@](C)(OC)C[C@@H](C)C(=O)[C@H](C)[C@@H](O)[C@]1(C)O [Clarithromycin],MIC,[1],16 µg/mL
same,MIC,[2],16 µg/mL
same,MIC,[3],128 µg/mL
same,MIC,[4],0.5 µg/mL
same,MIC,[5],> 128 µg/mL
same,MBC,[6],> 128 µg/mL
same,MBC,[7],1 µg/mL
C[C@@H](O)[C@H]1C(=O)N2C(C(=O)O)=C(S[C@@H]3CN[C@H](C(=O)N(C)C)C3)[C@H](C)[C@H]12 [Meropenem],MIC,[8],0.06 µg/mL
same,MIC,[9],16 µg/mL
same,MIC,[10],0.06 µg/mL
same,MIC,[11],0.25 µg/mL
same,MIC,[1],2 to 4 µg/mL
same,MIC,[12]; [19],16 µg/mL
same,MIC,[13],0.015 to 0.06 µg/mL
same,MIC,[14],2 µg/mL
same,MIC,[15],> 0.5 µg/mL
same,MIC,[2],0.06 µg/mL
same,MIC,[3],0.03 µg/mL
same,MIC,[4],0.002 µg/mL
same,MBC,[16],0.06 µg/mL
same,MBC,[6],0.06 µg/mL
same,MBC,[7],0.008 µg/mL
NC(=O)N/N=C/c1ccc([N+](=O)[O-])o1 [Nitrofurazone],MIC,[8],16 µg/mL
same,MIC,[9],8 to 16 µg/mL
same,MIC,[10],8 µg/mL
same,MIC,[11],8 µg/mL
same,MIC,[1],64 µg/mL
same,MIC,[12]; E. faecium ATCC 35667,>64 µg/mL
same,MIC,[12]; [19],128 µg/mL
same,MIC,[13],8 to 16 µg/mL
same,MIC,"[17]; S. typhimurium ATCC14028, read-out: MIC",8 µg/mL
same,MIC,[14],32 µg/mL
same,MIC,[15],64 µg/mL
same,MIC,[18],64 µg/mL
same,MIC,[5],64 µg/mL
O=C1OCCN1/N=C/c1ccc([N+](=O)[O-])o1 [Furazolidone],MIC,[8],4 to 16 µg/mL
same,MIC,[9],8 µg/mL
same,MIC,[10],2 to 4 µg/mL
same,MIC,[11],2 µg/mL
same,MIC,[1],8 to 16 µg/mL
same,MIC,[12]; E. faecium ATCC 35667,>64 µg/mL
same,MIC,[12]; [19],> 128 µg/mL
same,MIC,[13],1 to 2 µg/mL
same,MIC,[17],2 µg/mL
same,MIC,[14],32 µg/mL
same,MIC,[15],> 16 µg/mL
same,MIC,[5],64 µg/mL
